Measured values taken from patent publication US20260069584A1, “METHODS OF TREATING CHRONIC MYELOID LEUKEMIA USING THE TYROSINE KINASE INHIBITOR VODOBATINIB” (Sun Pharma Advanced Research Company Ltd., priority 2022, published 2026).

Assay: Part B: safety, treatment-emergent adverse events, DLT and MTD
Assay type: in vivo
Excerpt: For the purpose of the present invention, the adverse events were graded as per the National Cancer Institute's, Common Terminology Criteria for Adverse Events (NCI-CTCAE) Version 4.03 and Version 5.0 (https://evs.nci.nih.gov/ftp1/CTCAE/About.html). It is a descriptive terminology which can be utilized for Adverse Event (AE) reporting.
AEs were graded as per NCI-CTCAE Version 5.0. In the present study, along with others most common AEs for which patients were monitored were thrombocytopenia, neutropenia and anemia, any AE reported by the patient after the completion of AE collection period and considered related to the study drug was reported.
Dose Limiting Toxicity (DLT) is defined as the occurrence of any of the following unless clearly and incontrovertibly related to the underlying disease. The hematological DLTs were defined as per the Phase of CML: • a) Grade 3 or higher, or other non-hematological toxicity, including nausea, vomiting and diarrhea, and refractory to standard antiemetic therapy except alopecia and nail disorders; • b) Missed ≥25% of doses over 28 days due to toxicity in Cycle 1; and • c) Any grade of toxicity requiring dose reduction or discontinuation of IMP within the 28-days DLT assessment period (Cycle 1).
Safety Parameters: Parts B and C: Descriptive summaries were provided for the safety variables collected. Continuous variables were summarized using mean, standard deviation, minimum, median, and maximum. Categorical variables were summarized using frequency counts and percentages. For time-to-event variables, other percentiles were presented. In addition, summaries of AEs by intensity, seriousness, frequency, and relationship to IMP are presented. Adverse events (AE) s were coded using the Medical Dictionary for Regulatory Activities (MedDRA) and summarized by System Organ Class (SOC) and Preferred Term (PT).
In this study, the dose-escalation cohort started with an accelerated titration study design (ATD) and shifted to a 3±3 design when subjects in the preceding ATD cohort experienced either grade 2 or higher adverse events (AEs) or dose-limiting toxicity (DLT) during Cycle 1 that was not clearly and incontrovertibly related to the underlying disease or concomitant medications. The DLT period consisted of 28 days (Cycle 1). Subjects experiencing DLTs were managed with dose delays and/or discontinuation and continued in the study until disease progression. Decisions to advance to a succeeding dose level occurred after the evaluation of safety and tolerability data for a given dose level.
For the cohorts, where the 3±3 design applies, 3 subjects were enrolled initially. If 2 of these subjects experienced a Grade 2 or more toxicity (that was not clearly and incontrovertibly related to the underlying disease or concomitant medications), subsequent cohorts were escalated according to smaller increments. Further, if there were no DLTs in the first 3 subjects, dose escalation to the next higher dose level was allowed to proceed. If 1 of the 3 subjects experienced a DLT, that dose level was expanded to 6 subjects (3 additional subjects were enrolled). If 2 subjects at a given dose level experienced a DLT, the MTD was considered to have been exceeded. The next lower dose level was expanded to 6 subjects, or if 6 subjects had already been enrolled and no more than 1 of the 6 subjects experienced a DLT, then this lower dose level was considered the MTD. Additional subjects were enrolled in dose escalation cohorts for further assessment of safety and efficacy of the compound of Formula 1 at doses that were tolerated (i.e., doses that have <2 DLTs in 6 enrolled subjects or <1 DLT in 3 enrolled subjects). Thus 204 mg was arrived at as MTD. A subject experiencing a DLT was allowed to continue therapy with a reduced dose. Subjects who experienced a DLT and recovered were treated at the next lower dose level until disease progression or other events requiring further dose reduction existed. […]

SMILES: Cc1ccc(C(=O)NNC(=O)c2c(C)cccc2Cl)cc1C#Cc1cnc2ccccc2c1 [compound of Formula I, N′-(2-chloro-6-methylbenzoyl)-4-methyl-3-[2-(3-quinolyl)ethynyl]-benzohydrazide]
- anemia (grade 3 or 4): 13%
- diarrhea (grade 3 or 4): 2%
- thrombocytopenia (grade 3 or 4): 18.8%
- deaths during the study (human, in vivo): 5
- daily doses at which dose-limiting toxicities were present (human, in vivo, 28 days): 240 mg
- dose modification (of patients): 20.7%
- temporary dose interruptions (of patients): 37.7%
- MTD (maximum tolerated dose) (oral, once daily): 204 mg
- deaths considered related to the compound (out of 5 deaths): 1
- TEAEs, any grade (overall 53 patients): 96.2%
- grade 3 or 4 TEAEs (overall 53 patients): 64.1%
- highest efficacious and tolerable daily dose (patients with prior TKI exposure, mutations and ACAs): 204 mg
- All TEAEs, Any grade (≤2 prior TKIs (N = 18)): 16 No of pts
- All TEAEs, Grade 3/4 (≤2 prior TKIs (N = 18)): 6 No of pts
- Amylase increased, Any grade (≤2 prior TKIs (N = 18)): 0 No of pts
- Amylase increased, Grade 3/4 (≤2 prior TKIs (N = 18)): 0 No of pts
- Anemia, Any grade (≤2 prior TKIs (N = 18)): 2 No of pts
- Anemia, Grade 3/4 (≤2 prior TKIs (N = 18)): 2 No of pts
- Back pain, Any grade (≤2 prior TKIs (N = 18)): 1 No of pts
- Back pain, Grade 3/4 (≤2 prior TKIs (N = 18)): 0 No of pts
- Constipation, Any grade (≤2 prior TKIs (N = 18)): 2 No of pts
- Constipation, Grade 3/4 (≤2 prior TKIs (N = 18)): 0 No of pts
- Cough, Any grade (≤2 prior TKIs (N = 18)): 3 No of pts
- Cough, Grade 3/4 (≤2 prior TKIs (N = 18)): 0 No of pts
- Death, Any grade (≤2 prior TKIs (N = 18)): 3 No of pts
- Death, Grade 3/4 (≤2 prior TKIs (N = 18)): 0 No of pts
- Decreased appetite, Any grade (≤2 prior TKIs (N = 18)): 1 No of pts
- Decreased appetite, Grade 3/4 (≤2 prior TKIs (N = 18)): 0 No of pts
- Diarrhoea, Any grade (≤2 prior TKIs (N = 18)): 1 No of pts
- Diarrhoea, Grade 3/4 (≤2 prior TKIs (N = 18)): 0 No of pts
- Fatigue, Any grade (≤2 prior TKIs (N = 18)): 2 No of pts
- Fatigue, Grade 3/4 (≤2 prior TKIs (N = 18)): 0 No of pts
- Headache, Any grade (≤2 prior TKIs (N = 18)): 1 No of pts
- Headache, Grade 3/4 (≤2 prior TKIs (N = 18)): 0 No of pts
- Lipase increased, Any grade (≤2 prior TKIs (N = 18)): 0 No of pts
- Lipase increased, Grade 3/4 (≤2 prior TKIs (N = 18)): 0 No of pts
- Myalgia, Any grade (≤2 prior TKIs (N = 18)): 1 No of pts
- Myalgia, Grade 3/4 (≤2 prior TKIs (N = 18)): 0 No of pts
- Nasopharyngitis, Any grade (≤2 prior TKIs (N = 18)): 3 No of pts
- Nasopharyngitis, Grade 3/4 (≤2 prior TKIs (N = 18)): 0 No of pts
- Nausea, Any grade (≤2 prior TKIs (N = 18)): 0 No of pts
- Nausea, Grade 3/4 (≤2 prior TKIs (N = 18)): 0 No of pts
- Neutropenia, Any grade (≤2 prior TKIs (N = 18)): 2 No of pts
- Neutropenia, Grade 3/4 (≤2 prior TKIs (N = 18)): 2 No of pts
- Pruritis, Any grade (≤2 prior TKIs (N = 18)): 2 No of pts
- Pruritis, Grade 3/4 (≤2 prior TKIs (N = 18)): 0 No of pts
- Pyrexia, Any grade (≤2 prior TKIs (N = 18)): 2 No of pts
- Pyrexia, Grade 3/4 (≤2 prior TKIs (N = 18)): 0 No of pts
- Rhinitis, Any grade (≤2 prior TKIs (N = 18)): 2 No of pts
- Rhinitis, Grade 3/4 (≤2 prior TKIs (N = 18)): 0 No of pts
- SAEs, Any grade (≤2 prior TKIs (N = 18)): 6 No of pts
- SAEs, Grade 3/4 (≤2 prior TKIs (N = 18)): 2 No of pts
- TEAEs Leading to drug withdrawal, Any grade (≤2 prior TKIs (N = 18)): 3 No of pts
- TEAEs Leading to drug withdrawal, Grade 3/4 (≤2 prior TKIs (N = 18)): 0 No of pts
- TEAEs Related to comp of Formula I, Any grade (≤2 prior TKIs (N = 18)): 12 No of pts
- TEAEs Related to comp of Formula I, Grade 3/4 (≤2 prior TKIs (N = 18)): 3 No of pts
- TEAEs: Dose discontinued and restarted, Any grade (≤2 prior TKIs (N = 18)): 5 No of pts
- TEAEs: Dose discontinued and restarted, Grade 3/4 (≤2 prior TKIs (N = 18)): 2 No of pts
- TEAEs: Dose modifications, Any grade (≤2 prior TKIs (N = 18)): 1 No of pts
- TEAEs: Dose modifications, Grade 3/4 (≤2 prior TKIs (N = 18)): 1 No of pts
- Thrombocytopenia, Any grade (≤2 prior TKIs (N = 18)): 7 No of pts
- Thrombocytopenia, Grade 3/4 (≤2 prior TKIs (N = 18)): 3 No of pts
- Vomiting, Any grade (≤2 prior TKIs (N = 18)): 0 No of pts
- Vomiting, Grade 3/4 (≤2 prior TKIs (N = 18)): 0 No of pts
- All TEAEs, Any grade (≥3 prior TKIs (N = 35)): 35 No of pts
- All TEAEs, Grade 3/4 (≥3 prior TKIs (N = 35)): 28 No of pts
- Amylase increased, Any grade (≥3 prior TKIs (N = 35)): 5 No of pts
- Amylase increased, Grade 3/4 (≥3 prior TKIs (N = 35)): 4 No of pts
- Anemia, Any grade (≥3 prior TKIs (N = 35)): 9 No of pts
- Anemia, Grade 3/4 (≥3 prior TKIs (N = 35)): 5 No of pts
- Back pain, Any grade (≥3 prior TKIs (N = 35)): 6 No of pts
- Back pain, Grade 3/4 (≥3 prior TKIs (N = 35)): 0 No of pts
- Constipation, Any grade (≥3 prior TKIs (N = 35)): 6 No of pts
- Constipation, Grade 3/4 (≥3 prior TKIs (N = 35)): 0 No of pts
- Cough, Any grade (≥3 prior TKIs (N = 35)): 8 No of pts
- Cough, Grade 3/4 (≥3 prior TKIs (N = 35)): 0 No of pts
- Death, Any grade (≥3 prior TKIs (N = 35)): 2 No of pts
- Death, Grade 3/4 (≥3 prior TKIs (N = 35)): 0 No of pts
- Decreased appetite, Any grade (≥3 prior TKIs (N = 35)): 5 No of pts
- Decreased appetite, Grade 3/4 (≥3 prior TKIs (N = 35)): 0 No of pts
- Diarrhoea, Any grade (≥3 prior TKIs (N = 35)): 11 No of pts
- Diarrhoea, Grade 3/4 (≥3 prior TKIs (N = 35)): 1 No of pts
- Fatigue, Any grade (≥3 prior TKIs (N = 35)): 5 No of pts
- Fatigue, Grade 3/4 (≥3 prior TKIs (N = 35)): 0 No of pts
- Headache, Any grade (≥3 prior TKIs (N = 35)): 7 No of pts
- Headache, Grade 3/4 (≥3 prior TKIs (N = 35)): 0 No of pts
- Lipase increased, Any grade (≥3 prior TKIs (N = 35)): 5 No of pts
- Lipase increased, Grade 3/4 (≥3 prior TKIs (N = 35)): 4 No of pts
- Myalgia, Any grade (≥3 prior TKIs (N = 35)): 6 No of pts
- Myalgia, Grade 3/4 (≥3 prior TKIs (N = 35)): 0 No of pts
- Nasopharyngitis, Any grade (≥3 prior TKIs (N = 35)): 3 No of pts
- Nasopharyngitis, Grade 3/4 (≥3 prior TKIs (N = 35)): 0 No of pts
- Nausea, Any grade (≥3 prior TKIs (N = 35)): 8 No of pts
- Nausea, Grade 3/4 (≥3 prior TKIs (N = 35)): 0 No of pts
- Neutropenia, Any grade (≥3 prior TKIs (N = 35)): 6 No of pts
- Neutropenia, Grade 3/4 (≥3 prior TKIs (N = 35)): 5 No of pts
- Pruritis, Any grade (≥3 prior TKIs (N = 35)): 4 No of pts
- Pruritis, Grade 3/4 (≥3 prior TKIs (N = 35)): 0 No of pts
- Pyrexia, Any grade (≥3 prior TKIs (N = 35)): 6 No of pts
- Pyrexia, Grade 3/4 (≥3 prior TKIs (N = 35)): 1 No of pts
- Rhinitis, Any grade (≥3 prior TKIs (N = 35)): 4 No of pts
- Rhinitis, Grade 3/4 (≥3 prior TKIs (N = 35)): 0 No of pts
- SAEs, Any grade (≥3 prior TKIs (N = 35)): 14 No of pts
- SAEs, Grade 3/4 (≥3 prior TKIs (N = 35)): 10 No of pts
- TEAEs Leading to drug withdrawal, Any grade (≥3 prior TKIs (N = 35)): 3 No of pts
- TEAEs Leading to drug withdrawal, Grade 3/4 (≥3 prior TKIs (N = 35)): 2 No of pts
- TEAEs Related to comp of Formula I, Any grade (≥3 prior TKIs (N = 35)): 23 No of pts
- TEAEs Related to comp of Formula I, Grade 3/4 (≥3 prior TKIs (N = 35)): 11 No of pts
- TEAEs: Dose discontinued and restarted, Any grade (≥3 prior TKIs (N = 35)): 15 No of pts
- TEAEs: Dose discontinued and restarted, Grade 3/4 (≥3 prior TKIs (N = 35)): 10 No of pts
- TEAEs: Dose modifications, Any grade (≥3 prior TKIs (N = 35)): 10 No of pts
- TEAEs: Dose modifications, Grade 3/4 (≥3 prior TKIs (N = 35)): 5 No of pts
- Thrombocytopenia, Any grade (≥3 prior TKIs (N = 35)): 17 No of pts
- Thrombocytopenia, Grade 3/4 (≥3 prior TKIs (N = 35)): 7 No of pts
- Vomiting, Any grade (≥3 prior TKIs (N = 35)): 7 No of pts
- Vomiting, Grade 3/4 (≥3 prior TKIs (N = 35)): 0 No of pts
